A word on the IC50: it is the concentration that gives 50% inhibition.

In assay [1] the target is T1, recombinant rat L-type calcium channel (LTCC) subunits (α1c, α2δ, and β1) (Rattus norvegicus, UniProt P22002).
T1 construct: expressed in transfected cells
Description: FLIPR calcium mobilization assay for L-type calcium channel. It counts as cell-based. The conditions noted are these: calcium mobilization in vitro assay; HEK293 cells expressing rat LTCC. The protocol: Recombinant human embryonal kidney cells (HEK293, ATCC) stably transfected with either N-type calcium channel (NTCC) subunits (α1b, α2δ, and ⊖3) or L-type calcium channel (LTCC) subunits (α1, α2δ, and β1) were routinely cultured in growth medium consisting of Dulbecco's Modified Eagles Medium containing 10% FBS, 100 U/mL penicillin, 100 μg/mL streptomycin, 4 mM L-glutamine, 500 μg/mL geneticin (G418), 20 μg/mL Blasticidin S (InVivogen, San Diego, Calif.) and 500 μg/mL zeocin (InVivogen).
FLIPR Calcium Mobilization Assay for L-Type Calcium Channel.
One day prior to performing this assay, HEK293 cells stably expressing recombinant rat L-type calcium channel (LTCC) subunits (α1c, α2δ, and β1) were trypsinized, then seeded on poly-D-lysine-coated 96-well clear-bottom black plates (Becton Dickinson, Franklin Lakes, N.J.) at 75,000 cells/well. On the day of the assay, the plates were washed with LTCC wash buffer (127 mM NaCl, 2 mM MgCl2, 700 μM NaH2PO4, 5 mM CaCl2, 5 mM NaHCO3, 8 mM HEPES, 10 mM glucose, pH 7.4), then loaded with 0.1 mL of LTCC wash buffer containing Fluo-4 (3 μM final concentration, Molecular Probes, Eugene, Oreg.). After 1 hour, the cells were washed with 0.1 mL LTCC wash buffer and resuspended in 0.05 mL LTCC assay buffer (same composition as LTCC wash buffer). Plates were then transferred to a FLIPR^96 for assay. The FLIPR measured basal Fluo-4 fluorescence for 15 seconds, then is added 0.05 mL of each compound tested diluted in LTCC assay buffer at final concentrations ranging from about 846 pM to about 17 μM. Fluo-4 fluorescence was then measured for 5 minutes. 0.1 mL KCl agonist dissolved in LTCC assay buffer was then added to the cells to produce a final concentration of 90 mM KCl, and fluorescence was measured for another 45 seconds. Data were collected over the entire time course and analyzed using Excel, Graph Pad Prism, or an in-house regression analysis software.
(Calcium assays in cells follow changes in intracellular calcium, usually with a dye or a luminescent sensor.)

The target in assay [2] is T2, N-type calcium channel (NTCC) (Homo sapiens, UniProt Q00975).
T2 construct: host or cells: IMR32 cells differentiated with dibutyryl cAMP and bromodeoxyuridine
T2 sequence (Q00975 whole entry): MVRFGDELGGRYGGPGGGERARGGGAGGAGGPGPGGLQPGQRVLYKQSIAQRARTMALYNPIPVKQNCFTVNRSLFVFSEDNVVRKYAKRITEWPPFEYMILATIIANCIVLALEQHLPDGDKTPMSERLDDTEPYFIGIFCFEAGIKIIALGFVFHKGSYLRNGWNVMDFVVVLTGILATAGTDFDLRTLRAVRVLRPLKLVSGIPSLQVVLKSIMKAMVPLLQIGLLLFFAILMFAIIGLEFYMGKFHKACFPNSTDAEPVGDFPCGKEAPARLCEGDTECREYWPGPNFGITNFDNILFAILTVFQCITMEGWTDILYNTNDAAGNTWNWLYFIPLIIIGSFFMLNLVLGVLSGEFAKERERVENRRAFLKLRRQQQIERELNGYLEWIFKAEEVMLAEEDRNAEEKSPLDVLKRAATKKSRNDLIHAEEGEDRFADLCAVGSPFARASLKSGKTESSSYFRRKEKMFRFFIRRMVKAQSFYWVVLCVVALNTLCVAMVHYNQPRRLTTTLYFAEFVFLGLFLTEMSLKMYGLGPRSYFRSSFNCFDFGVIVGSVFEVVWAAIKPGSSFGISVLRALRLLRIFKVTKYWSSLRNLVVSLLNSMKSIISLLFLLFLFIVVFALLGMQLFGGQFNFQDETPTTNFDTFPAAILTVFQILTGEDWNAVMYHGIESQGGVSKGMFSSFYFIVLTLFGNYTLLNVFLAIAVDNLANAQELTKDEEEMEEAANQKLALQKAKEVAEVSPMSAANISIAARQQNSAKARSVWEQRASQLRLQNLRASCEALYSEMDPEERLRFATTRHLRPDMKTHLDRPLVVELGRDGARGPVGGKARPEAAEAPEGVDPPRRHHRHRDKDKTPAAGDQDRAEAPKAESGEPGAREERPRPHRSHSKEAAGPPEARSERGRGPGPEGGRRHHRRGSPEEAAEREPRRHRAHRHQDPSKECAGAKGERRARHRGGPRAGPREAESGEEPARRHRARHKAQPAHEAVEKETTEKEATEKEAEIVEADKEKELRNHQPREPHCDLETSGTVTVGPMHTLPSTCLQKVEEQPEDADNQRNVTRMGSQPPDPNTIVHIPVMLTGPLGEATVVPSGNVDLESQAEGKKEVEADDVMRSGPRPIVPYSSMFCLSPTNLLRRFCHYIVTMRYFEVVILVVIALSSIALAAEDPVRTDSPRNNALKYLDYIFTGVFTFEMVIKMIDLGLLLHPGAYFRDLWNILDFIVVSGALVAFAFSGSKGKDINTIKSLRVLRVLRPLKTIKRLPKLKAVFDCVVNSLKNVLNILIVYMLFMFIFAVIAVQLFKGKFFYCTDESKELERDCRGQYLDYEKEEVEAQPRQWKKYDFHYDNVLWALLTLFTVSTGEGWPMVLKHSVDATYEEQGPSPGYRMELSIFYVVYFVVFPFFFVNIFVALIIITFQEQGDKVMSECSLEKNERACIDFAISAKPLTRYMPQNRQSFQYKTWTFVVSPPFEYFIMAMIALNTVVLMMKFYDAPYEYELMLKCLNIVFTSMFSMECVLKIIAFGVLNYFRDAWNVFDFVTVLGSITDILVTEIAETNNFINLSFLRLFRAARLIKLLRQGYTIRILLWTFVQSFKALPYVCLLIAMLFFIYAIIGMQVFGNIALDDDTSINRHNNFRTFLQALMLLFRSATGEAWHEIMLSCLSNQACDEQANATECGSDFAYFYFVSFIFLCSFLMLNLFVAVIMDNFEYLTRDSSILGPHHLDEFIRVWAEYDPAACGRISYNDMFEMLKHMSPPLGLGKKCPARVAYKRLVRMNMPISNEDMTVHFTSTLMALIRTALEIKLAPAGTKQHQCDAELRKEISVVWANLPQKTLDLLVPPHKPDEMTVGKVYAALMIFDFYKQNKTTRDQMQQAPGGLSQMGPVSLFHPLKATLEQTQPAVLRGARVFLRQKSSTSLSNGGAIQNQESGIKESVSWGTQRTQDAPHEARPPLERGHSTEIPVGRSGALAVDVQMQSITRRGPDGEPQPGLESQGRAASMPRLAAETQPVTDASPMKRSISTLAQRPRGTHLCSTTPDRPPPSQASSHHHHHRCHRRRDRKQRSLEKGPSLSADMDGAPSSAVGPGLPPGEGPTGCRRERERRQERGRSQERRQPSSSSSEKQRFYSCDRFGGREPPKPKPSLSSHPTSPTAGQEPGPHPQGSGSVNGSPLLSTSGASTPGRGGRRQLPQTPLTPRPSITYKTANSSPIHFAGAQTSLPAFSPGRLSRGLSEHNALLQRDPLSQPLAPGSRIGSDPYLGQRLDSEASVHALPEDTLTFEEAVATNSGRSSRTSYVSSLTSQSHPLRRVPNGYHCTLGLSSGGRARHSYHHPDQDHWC
T2 sequence (P54289 25-956 partner limits assumed): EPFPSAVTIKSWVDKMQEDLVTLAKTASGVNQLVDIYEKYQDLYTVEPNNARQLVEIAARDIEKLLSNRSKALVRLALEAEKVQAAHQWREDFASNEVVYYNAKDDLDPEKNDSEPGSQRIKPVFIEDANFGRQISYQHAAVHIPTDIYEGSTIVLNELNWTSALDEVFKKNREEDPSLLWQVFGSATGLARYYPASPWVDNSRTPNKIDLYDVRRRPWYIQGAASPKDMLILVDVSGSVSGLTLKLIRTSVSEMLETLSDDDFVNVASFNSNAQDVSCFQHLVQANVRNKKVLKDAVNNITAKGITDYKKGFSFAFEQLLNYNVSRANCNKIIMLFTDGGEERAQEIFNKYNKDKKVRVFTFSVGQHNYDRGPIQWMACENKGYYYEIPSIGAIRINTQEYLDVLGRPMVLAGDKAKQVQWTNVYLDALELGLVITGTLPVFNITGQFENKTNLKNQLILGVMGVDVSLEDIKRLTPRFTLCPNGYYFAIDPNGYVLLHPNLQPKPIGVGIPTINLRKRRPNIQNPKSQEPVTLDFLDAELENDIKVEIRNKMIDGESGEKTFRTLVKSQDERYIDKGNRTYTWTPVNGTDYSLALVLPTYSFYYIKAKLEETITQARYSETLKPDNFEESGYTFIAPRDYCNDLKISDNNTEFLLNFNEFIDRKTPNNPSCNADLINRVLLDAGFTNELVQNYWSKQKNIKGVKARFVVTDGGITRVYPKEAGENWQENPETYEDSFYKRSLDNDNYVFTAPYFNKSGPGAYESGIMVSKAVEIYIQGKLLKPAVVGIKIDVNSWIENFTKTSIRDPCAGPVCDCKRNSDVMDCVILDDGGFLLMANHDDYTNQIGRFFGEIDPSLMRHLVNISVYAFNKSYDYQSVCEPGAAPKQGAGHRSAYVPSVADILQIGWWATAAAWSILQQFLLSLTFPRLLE
T2 sequence (P54289 957-1103 partner limits assumed): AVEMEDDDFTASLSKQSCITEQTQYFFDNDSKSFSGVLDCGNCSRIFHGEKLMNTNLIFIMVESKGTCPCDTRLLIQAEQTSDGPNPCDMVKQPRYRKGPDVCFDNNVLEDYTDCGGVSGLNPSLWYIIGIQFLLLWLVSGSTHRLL
T2 sequence (P54284 whole entry partner): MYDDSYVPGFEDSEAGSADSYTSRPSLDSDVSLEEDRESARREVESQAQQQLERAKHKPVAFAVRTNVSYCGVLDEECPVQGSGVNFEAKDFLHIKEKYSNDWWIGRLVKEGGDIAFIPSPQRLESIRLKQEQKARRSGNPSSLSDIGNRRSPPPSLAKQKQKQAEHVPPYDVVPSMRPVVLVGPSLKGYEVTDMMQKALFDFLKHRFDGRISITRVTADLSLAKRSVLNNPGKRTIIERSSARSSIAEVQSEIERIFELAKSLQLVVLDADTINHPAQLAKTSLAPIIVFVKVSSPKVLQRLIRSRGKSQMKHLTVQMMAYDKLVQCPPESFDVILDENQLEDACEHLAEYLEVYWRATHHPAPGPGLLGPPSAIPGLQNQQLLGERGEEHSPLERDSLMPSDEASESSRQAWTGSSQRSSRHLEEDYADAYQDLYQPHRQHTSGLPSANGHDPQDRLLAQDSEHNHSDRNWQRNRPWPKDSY
Kind of assay: FLIPR calcium mobilization assay for N-type calcium channel. The class given is cell-based. The conditions noted are these: calcium mobilization in vitro assay; differentiated IMR32 cells. The method, then: Unless noted otherwise, cell culture reagents were purchased from Mediatech of Herndon, Md. IMR32 cells (American Type Culture Collection, ATCC, Manassas, Va.) were routinely cultured in growth medium consisting of minimum essential medium containing 10% fetal bovine serum (FBS, Hyclone, Logan, Utah), 100 U/mL penicillin, 100 μg/mL streptomycin, 2 mM L-glutamine, 1 mM sodium pyruvate, and 1× MEM non-essential amino acids. 80-90% confluent flasks of cells were differentiated using the following differentiation medium: Growth medium plus 1 mM dibutyryl cyclic AMP (Sigma, St. Louis, Mo.), and 2.5 μM bromodeoxyuridine (Sigma). Cells were differentiated for 8 days by replacing differentiation medium every 2-3 days.
FLIPR Calcium Mobilization Assay for N-Type Calcium Channel.
One day prior to performing this assay, differentiated IMR32 cells were treated with 1× CellStripper, and seeded on poly-D-lysine-coated 96-well clear-bottom black plates (Becton Dickinson, Franklin Lakes, N.J.) at 200,000 cells/well. On the day of the assay, the cell plates were washed with IMR32 buffer (127 mM NaCl, 1 mM KCl, 2 mM MgCl2, 700 μM NaH2PO4, 5 mM CaCl2, 5 mM NaHCO3, 8 mM HEPES, 10 mM glucose, pH 7.4), then pre-stimulated with KCl and loaded as follows: 0.05 mL of IMR32 buffer, 0.05 mL of each compound tested diluted in IMR32 buffer containing 20 μM nitrendipine (Sigma), and 0.1 mL KCl dissolved in IMR32 buffer, plus Fluo-4 were added (3 μM final concentration, Molecular Probes, Eugene, Oreg.). Final test compound concentrations ranged from about 846 pM to about 17 μM, final nitrendipine concentration was 5 μM, and final KCl concentration was 90 mM. After 1 hour, the cells were washed twice with 0.05 mL of each compound is tested in nitrendipine-containing IMR32 buffer (no KCl or Fluo-4), and then replaced with 0.1 mL of each compound tested in nitrendipine-containing IMR32 buffer. Plates were then transferred to a Fluorimetric Imaging Plate Reader (FLIPR^96, Molecular Devices, Inc., Sunnyvale, Calif.) for assay. The FLIPR measured basal Fluo-4 fluorescence for 315 seconds (i.e., 5 minutes and 15 seconds), then added 0.1 mL KCl agonist dissolved in IMR32 buffer and measured fluorescence for another 45 seconds. Final test compound concentrations on the cells after FLIPR read ranged from about 846 pM to about 17 μM, final nitrendipine concentration was 5 μM, and final KCl concentration was 90 mM. Data were collected over the entire time course and analyzed using Excel, Graph Pad Prism (version 3.02, Graph Pad, San Diego, Calif.), or an in-house non-linear regression analysis software.

Take `CC(C)N(C1CCN(CCCN(c2ccc(F)cc2)c2ccc(F)cc2)CC1)S(=O)(=O)c1cccc(C(F)(F)F)c1` [Compound 8, N-(1-{3-[Bis(4-fluorophenyl)amino]propyl}piperidin-4-yl)-N-isopropyl-3-trifluoromethylbenzenesulfonamide]: the values for the IC50 in assay [1] and in assay [2] were more than 20 µM and 0.62 µM, respectively.
For `O=C(Nc1ccc(F)cc1)C(=O)N1CCC(N(C2CC2)S(=O)(=O)c2cccc(C(F)(F)F)c2)CC1` [Compound 22, 2-{4-[Cyclopropyl-(3-trifluoromethylbenzenesulfonyl)amino]-piperidin-1-yl}-N-(4-fluorophenyl)-2-oxo-acetamide], the IC50 in assay [1] is more than 20 µM; in assay [2], 0.7 µM.
For `O=C(CC(=O)N1CCC(N(C2CC2)S(=O)(=O)c2cccc(C(F)(F)F)c2)CC1)Nc1ccc(F)cc1` [Compound 26, 3-{4-[Cyclopropyl-(3-trifluoromethylbenzenesulfonyl)amino]-piperidin-1-yl}-N-(4-fluorophenyl)-3-oxo-propionamide], in that order: 3.78 µM and 0.44 µM.
Take `CC(C)CNC(=O)CN1CCC(N(C(C)C)S(=O)(=O)c2cccc(C(F)(F)F)c2)CC1` [Compound 34, N-Isobutyl-2-{4-[isopropyl-(3-trifluoromethylbenzenesulfonyl)amino]-piperidin-1-yl}-acetamide]: the figures for the IC50 in assay [1] and in assay [2] were 9.08 µM and 0.32 µM, respectively.
For `CCN(CC)C(=O)CN1CCC(N(C2CC2)S(=O)(=O)c2cccc(C(F)(F)F)c2)CC1` [Compound 38, 2-{4-[Cyclopropyl-(3-trifluoromethylbenzenesulfonyl)amino]-piperidin-1-yl}-N,N-diethylacetamide], in that order: 3.26 µM and 0.84 µM.
In the same order, the values of `Cc1ccccc1NC(=O)CN1CCC(N(C(C)C)S(=O)(=O)c2cccc(C(F)(F)F)c2)CC1` [Compound 42b, 2-{4-[Isopropyl-(3-trifluoromethylbenzenesulfonyl)amino]-piperidin-1-yl}-N-o-tolyl-acetamide] are 3.23 µM and 0.46 µM.
Regarding `CCOc1ccccc1NC(=O)CN1CCC(N(C(C)C)S(=O)(=O)c2cccc(C(F)(F)F)c2)CC1` [Compound 42c, N-(2-Ethoxyphenyl)-2-{4-[isopropyl-(3-trifluoromethylbenzenesulfonyl)amino]-piperidin-1-yl}-acetamide], the results for the IC50 in assay [1] and in assay [2] were 9.54 µM and 0.11 µM, respectively.
Take `Cc1cccc(NC(=O)CN2CCC(N(C(C)C)S(=O)(=O)c3cccc(C(F)(F)F)c3)CC2)c1` [Compound 42d, 2-{4-[Isopropyl-(3-trifluoromethylbenzenesulfonyl)amino]-piperidin-1-yl}-N-m-tolyl-acetamide]: the values for the IC50 in assay [1] and in assay [2] were more than 20 µM and 0.45 µM, respectively.
`CC(C)c1ccc(NC(=O)CN2CCC(N(C(C)C)S(=O)(=O)c3cccc(C(F)(F)F)c3)CC2)cc1` [Compound 42f, N-(4-Isopropylphenyl)-2-{4-[isopropyl-(3-trifluoromethylbenzenesulfonyl)amino]-piperidin-1-yl}-acetamide]: the IC50 in assay [1] was more than 20 µM; in assay [2], 0.63 µM.
`CC(C)N(C1CCN(CC(=O)Nc2ccc(C#N)cc2)CC1)S(=O)(=O)c1cccc(C(F)(F)F)c1` [Compound 42g, N-(4-Cyanophenyl)-2-{4-[isopropyl-(3-trifluoromethylbenzenesulfonyl)amino]-piperidin-1-yl}-acetamide]: the IC50 in assay [1] stood at 2.51 µM; in assay [2], 0.18 µM.
For `COc1ccc(NC(=O)CN2CCC(N(C(C)C)S(=O)(=O)c3cccc(C(F)(F)F)c3)CC2)cc1` [Compound 42h, 2-{4-[isopropyl-(3-trifluoromethylbenzenesulfonyl)amino]-piperidin-1-yl}-N-(4-methoxyphenyl)acetamide], in that order: 5.32 µM and 0.46 µM.
With `CC(C)N(C1CCN(CC(=O)Nc2nc3ccc(F)cc3s2)CC1)S(=O)(=O)c1cccc(C(F)(F)F)c1` [Compound 42i, N-(6-Fluorobenzothiazol-2-yl)-2-{4-[isopropyl-(3-trifluoromethylbenzenesulfonyl)amino]-piperidin-1-yl}-acetamide], the figures for the IC50 in assay [1] and in assay [2] were more than 20 µM and 0.67 µM, respectively.
As for `CC(C)N(C1CCN(CC(=O)N(C)c2ccc(F)cc2)CC1)S(=O)(=O)c1cccc(C(F)(F)F)c1` [Compound 42j, N-(4-Fluorophenyl)-2-{4-[isopropyl-(3-trifluoromethyl-benzenesulfonyl)amino]-piperidin-1-yl}-N-methyl-acetamide], the IC50 in assay [1] was more than 20 µM; in assay [2], 0.33 µM.
As to `CC(C)N(C1CCN(CC(=O)NCc2ccc(F)cc2)CC1)S(=O)(=O)c1cccc(C(F)(F)F)c1` [Compound 42k, N-(4-Fluorobenzyl)-2-{4-[isopropyl-(3-trifluoromethylbenzenesulfonyl)amino]-piperidin-1-yl}-acetamide], the IC50 is 4.16 µM in assay [1] and 0.33 µM in assay [2].
Take `CC(C)N(C1CCN(CC(=O)Nc2ccc(OC(F)(F)F)cc2)CC1)S(=O)(=O)c1cccc(C(F)(F)F)c1` [Compound 42l, 2-{4-[Isopropyl-(3-trifluoromethylbenzenesulfonyl)amino]-piperidin-1-yl}-N-(4-trifluoromethoxyphenyl)-acetamide]: the IC50 in assay [1] was more than 20 µM; in assay [2], 0.25 µM.
For the compound `CC(C)N(C1CCN(CC(=O)Nc2ccc(C(F)(F)F)cn2)CC1)S(=O)(=O)c1cccc(C(F)(F)F)c1` [Compound 42m, 2-{4-[Isopropyl-(3-trifluoromethylbenzenesulfonyl)amino]-piperidin-1-yl}-N-(5-trifluoromethylpyridin-2-yl)-acetamide], the results for the IC50 in assay [1] and in assay [2] were more than 20 µM and 0.41 µM, respectively.
For the compound `CC(C)N(C1CCN(CC(=O)Nc2ccc(F)cc2)CC1)S(=O)(=O)c1cccc(C(F)(F)F)c1` [Compound 44, N-(4-Fluorophenyl)-2-{4-[isopropyl-(3-trifluoromethylbenzenesulfonyl)amino]-piperidin-1-yl}-acetamide], the IC50 in assay [1] amounted to 2.68 µM; in assay [2], 0.28 µM.
`O=C(CN1CCC(N(C2CC2)S(=O)(=O)c2cccc(Cl)c2)CC1)Nc1ccc(F)cc1` [Compound 50, 2-{4-[(3-Chlorobenzenesulfonyl)cyclopropylamino]-piperidin-1-yl}-N-(4-fluorophenyl)acetamide]: the results for the IC50 in assay [1] and in assay [2] were 10 to 20 µM and 0.84 µM, respectively.
Turning to `CN(C1CCN(CC(=O)Nc2ccc(F)cc2)CC1)S(=O)(=O)c1cccc(C(F)(F)F)c1` [Compound 51, N-(4-Fluorophenyl)-2-{4-[methyl-(3-trifluoromethylbenzenesulfonyl)-amino]-piperidin-1-yl}-acetamide], the IC50 in assay [1] was more than 20 µM; in assay [2], 0.7 µM.

Values taken from patent US8791264B2 (Purdue Pharma L.P., priority 2006, dated 2014).
